Patent US20260317319A1, “NOVEL ERGOLINES AND METHODS OF TREATING MOOD DISORDERS” (Gilgamesh Pharma Inc., priority 2023, published 2026)

Assays:
[1] = target: T1, 5-HT2C receptor (Homo sapiens, UniProt P28335); experiment: cell-based; conditions: for Emax: read-out: 5-HT2C % Act @ Max Dose; for EC50: read-out: 5-HT2C EC50
T1 sequence (P28335 33-458): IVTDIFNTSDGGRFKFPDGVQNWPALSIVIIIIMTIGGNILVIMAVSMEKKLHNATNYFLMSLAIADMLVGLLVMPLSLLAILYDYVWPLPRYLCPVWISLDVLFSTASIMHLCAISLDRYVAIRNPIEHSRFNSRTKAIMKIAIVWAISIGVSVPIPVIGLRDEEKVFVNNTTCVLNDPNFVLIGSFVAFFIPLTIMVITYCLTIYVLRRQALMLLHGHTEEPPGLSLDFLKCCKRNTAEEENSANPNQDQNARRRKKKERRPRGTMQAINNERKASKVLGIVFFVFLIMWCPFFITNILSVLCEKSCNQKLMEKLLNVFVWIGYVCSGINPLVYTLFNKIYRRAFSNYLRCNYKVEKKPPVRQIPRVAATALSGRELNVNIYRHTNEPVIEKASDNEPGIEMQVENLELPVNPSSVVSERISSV

[2] = target: T2, D1 dopamine receptor (Homo sapiens, UniProt P21728); experiment: Ca2+ flux functional assay at D1; format: cell-based; conditions: agonist, max dose, read-out: D1 % Act @ Max Dose
T2 construct: expressed in transfected cells
T2 sequence (P21728 whole entry): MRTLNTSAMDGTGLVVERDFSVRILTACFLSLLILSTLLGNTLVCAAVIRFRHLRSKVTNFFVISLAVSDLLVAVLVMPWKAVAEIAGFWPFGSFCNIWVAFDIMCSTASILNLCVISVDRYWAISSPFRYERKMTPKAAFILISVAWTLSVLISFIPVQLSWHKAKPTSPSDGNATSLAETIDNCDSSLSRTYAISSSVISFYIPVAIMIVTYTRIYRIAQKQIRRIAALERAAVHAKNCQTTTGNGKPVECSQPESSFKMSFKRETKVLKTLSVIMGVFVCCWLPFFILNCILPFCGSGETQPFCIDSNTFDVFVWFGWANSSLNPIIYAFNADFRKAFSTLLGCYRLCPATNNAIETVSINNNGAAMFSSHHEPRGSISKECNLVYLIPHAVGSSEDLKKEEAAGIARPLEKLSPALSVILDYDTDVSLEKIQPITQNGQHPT
Experimental: Disclosed compounds were tested for agonist activity at several adrenergic (Alpha1A and Alpha2A) and dopamine (D1 and D2) receptor subtypes using Ca^2+ flux functional assays, with the results summarized in Table 6. Selectivity for the 5-HT2A receptor over these other targets varied depending on the specific target and compound.
(§1) Functional Assays at Adrenergic and Dopamine Receptors. Agonist activity at Alpha1A, Alpha2A, D1, and D2 receptors was determined using a FLIPR Ca^2+ flux assay at WuXi AppTec (Hong Kong) Limited according to their standard protocols. Briefly, stably transfected cells expressing the receptor of interest were grown and plated in a 384 well plate and incubated at 37° C. and 5% CO2 overnight. A solution of 250 mM probenecid in 1 mL FLIPR assay buffer was prepared fresh. This was combined with a fluorescent dye (Fluo-4 Direct™) to make a final assay concentration of 2.5 mM. Compounds were diluted 1:3.16 for 10 points and 750 nL was added to a 384 well compound plate using ECHO along with 30 μL assay buffer. The fluorescent dye was then added to the assay plate along with assay buffer to a final volume of 40 μL. The cell plate was incubated for 50 min at 37° C. and 5% CO2 and placed into the FLIPR Tetra along with the compound plate. 10 μL of references and compounds were then transferred from the compound plate into the cell plate and the fluorescent signal was read.

[3] = system: C57BL/6 mice; experiment: Mouse head twitch response (HTR) assay (observer-counted); format: in vivo
Experimental: Agonists of the 5-HT2A receptor are well known to induce this effect in rodents and the potency of this HTR is correlated with hallucinogenic potency in humans.
Animals. Adult male C57BL/6 mice, aged 6-8 weeks (body weight 20-25 g) were used in this experiment. Animals were housed under controlled temperatures and 12-hour light/dark cycles (lights on between 07:00-19:00 h), with ad libitum food and water. This study was carried out in strict accordance with the requirements of the Committee for the Purpose of Control and Supervision of Experiments on Animals (CPCSEA), India. All efforts were made to minimize suffering.
Procedure. Mice were administered one dose of the drug and immediately placed into a small open field for behavioral observation. Animals were observed continuously for 20 mins and the number of head twitches (HTs) were counted by an observer blind to the treatment condition.
Statistical Analysis. The data points shown are the mean±standard error of the mean (SEM). Analysis was performed using GraphPad Prism 6. Curves were fit using a non-linear gaussian distribution to calculate ED50 and Emax values.
Additional disclosed compounds were tested in the mouse head twitch response (HTR) assay according to the procedure described in Example 57 (administered SC). […] Lastly, compounds with much larger benzyl and phenethyl substituents on the amine nitrogen (e.g., 10 and 11) were low efficacy in this assay, consistent with their bias toward arrestin signaling (see Example 55).

[4] = target: T1, 5-HT2C receptor; experiment: Ca2+ flux functional assay at 5-HT2C (WuXi 5-HT2C protocol); format: cell-based; set-up: expressed in transfected cells; conditions: for Emax: agonist, tested using WuXi 5-HT2C protocol, max dose, read-out: 5-HT2C % Act @ Max Dose (* WuXi protocol)
Experimental: Disclosed compounds were tested for agonist activity at several serotonin receptor subtypes (5-HT2A, […], 5-HT2C, and 5-HT1A) using Ca^2+ flux functional assays and the 5-HT1B receptor using a cAMP accumulation assay, with the results summarized in Table 4. […] Potent agonist activity was also observed at the other serotonin receptors tested, although the selectivity profile among the receptors varied across compounds. […] However, at the same time, the N-propyl compounds were more efficacious agonists at 5-HT2B than the corresponding N-methyl compounds. The selectivity of disclosed compounds for 5-HT2A over 5-HT2C and 5-HT1A was less predictable and varied widely across compounds. […] An azetidinyl amide substituent tended to increase potency at 5-HT1A relative to 5-HT2A.
as §1, with “5-HT2A, 5-HT2B,” for “Adrenergic”, “5-HT1A.” for “Dopamine Receptors.”, “5-HT2A, 5-HT2B, 5HT2C” for “Alpha1A, Alpha2A, D1,”, “5-HT1A” for “D2”, “interest and Gα15 in the case of 5-HT1A (HEK293 for 5-HT2A and 5-HT2B; CHO cells for 5-HT1A)” for “interest”

[5] = target: 5-HT2A receptor (Homo sapiens, UniProt P28223); experiment: biochemical; format: binding; set-up: expressed in transfected cells; host or cells: HEK293, stably transfected; conditions: [3H]ketanserin 1 nM; HEK293 stable cell line; 1 h, 25 °C
Sequence of 5-HT2A receptor (P28223 whole entry): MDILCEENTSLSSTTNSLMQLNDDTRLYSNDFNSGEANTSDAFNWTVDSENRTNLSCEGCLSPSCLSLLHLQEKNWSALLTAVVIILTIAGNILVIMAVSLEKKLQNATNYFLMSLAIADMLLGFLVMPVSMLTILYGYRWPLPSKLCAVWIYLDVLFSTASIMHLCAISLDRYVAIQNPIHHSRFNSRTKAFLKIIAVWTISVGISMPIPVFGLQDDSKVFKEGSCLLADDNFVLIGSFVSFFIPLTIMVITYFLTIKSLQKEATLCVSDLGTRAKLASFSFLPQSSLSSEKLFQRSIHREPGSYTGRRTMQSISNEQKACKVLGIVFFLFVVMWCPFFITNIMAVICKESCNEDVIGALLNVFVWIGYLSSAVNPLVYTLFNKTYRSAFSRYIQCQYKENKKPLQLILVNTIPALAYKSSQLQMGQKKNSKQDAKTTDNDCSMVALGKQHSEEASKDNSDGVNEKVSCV
In short: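 Binding affinity comes from a [^3H]ketanserin radioligand assay run under literature-adapted conditions.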

[6] = agonist, Ca2+ flux, Eurofins DiscoverX protocol, max dose
[7] = agonist, Ca2+ flux, Eurofins DiscoverX protocol

| Structure (SMILES) | Emax [1, 6] [%] | EC50 [4] [nM] | Emax [4] [%] | Ki [5] [nM] | other results |
| --- | --- | --- | --- | --- | --- |
| CCCN1C[C@H](C(=O)N(CC)CC)C=C2c3cccc4[nH]cc(c34)C[C@H]21 [Compound 1, (6aR,9R)—N,N-diethyl-7-propyl-4,6,6a,7,8,9-hexahydroindolo[4,3-fg]quinoline-9-carboxamide] | 107 |  |  |  | Emax [2]: 109%; head twitch response ([3]; 20 min observation, FIG. 1): robust and dose-dependent HTR; HTR at most efficacious dose (bound) ([3]; SC, 20 min): > 15 HTR |
| CCN(CC)C(=O)[C@@H]1C=C2c3cccc4[nH]cc(c34)C[C@H]2N(CCCF)C1 [Compound 2, (6aR,9R)—N,N-diethyl-7-(3-fluoropropyl)-4,6,6a,7,8,9-hexahydroindolo[4,3-fg]quinoline-9-carboxamide] | 105 |  |  |  | Emax [2]: 114%; HTR at most efficacious dose (bound) ([3]; SC, 20 min): > 15 HTR |
| C=CCN1C[C@H](C(=O)N[C@H](C)CC)C=C2c3cccc4[nH]cc(c34)C[C@H]21 [Compound 8, (6aR,9R)-7-allyl-N—((R)-sec-butyl)-4,6,6a,7,8,9-hexahydroindolo[4,3-fg]quinoline-9-carboxamide] | 108 |  |  |  | HTR at most efficacious dose (bound) ([3]; SC, 20 min): > 15 HTR |
| CCN(CC)C(=O)[C@@H]1C=C2c3cccc4[nH]cc(c34)C[C@H]2N(CCc2ccccc2OC)C1 [Compound 11, (6aR,9R)—N,N-diethyl-7-(2-methoxyphenethyl)-4,6,6,7,8,9-hexahydroindolo[4,3-fg]quinoline-9-carboxamide] |  |  |  |  | ED50 (HTR) ([3]; SC, 20 min, curve fit poor in some cases): 2.205 mg/kg; Emax, HTR/20 min ([3]; SC, curve fit poor in some cases): 19.79 HTR/20 min; efficacy in HTR assay ([3]; SC, maximal effect): low efficacy; # HTR/20 min at Most Efficacious Dose ([3]; SC, most efficacious dose 3.2 mg/kg): 12.0 HTR/20 min |
| CCN(CC)C(=O)[C@@H]1C=C2c3cccc4[nH]cc(c34)C[C@H]2N(Cc2cccc(OC)c2)C1 [Compound 18, (6aR,9R)—N,N-diethyl-7-(3-methoxybenzyl)-4,6,6a,7,8,9-hexahydroindolo[4,3-fg]quinoline-9-carboxamide] | 7.28 |  |  |  | EC50 [1, 7]: > 10000 nM |
| CCN(CC)C(=O)[C@@H]1C=C2c3cccc4[nH]cc(c34)C[C@H]2N(Cc2ccc(OC)cc2)C1 [Compound 19, (6aR,9R)—N,N-diethyl-7-(4-methoxybenzyl)-4,6,6a,7,8,9-hexahydroindolo[4,3-fg]quinoline-9-carboxamide] | 1.7 |  |  |  | EC50 [1, 7]: > 10000 nM |
| CCN(CC)C(=O)[C@@H]1C=C2c3cccc4[nH]cc(c34)C[C@H]2N(Cc2ccc(F)cc2)C1 [Compound 49, (6aR,9R)—N,N-diethyl-7-(4-fluorobenzyl)-4,6,6a,7,8,9-hexahydroindolo[4,3-fg]quinoline-9-carboxamide] |  | > 10000 | 1.32 | 1.26 |  |
| CCN(CC)C(=O)[C@@H]1C=C2c3cccc4[nH]cc(c34)C[C@H]2N(Cc2ccc(Cl)cc2)C1 [Compound 50, (6aR,9R)-7-(4-chlorobenzyl)-N,N-diethyl-4,6,6a,7,8,9-hexahydroindolo[4,3-fg]quinoline-9-carboxamide] |  | > 10000 | 1.08 | 4.15 |  |
| CCN(CC)C(=O)[C@@H]1C=C2c3cccc4[nH]cc(c34)C[C@H]2N(Cc2cccc(O)c2)C1 [Compound 62, (6aR,9R)—N,N-diethyl-7-(3-hydroxybenzyl)-4,6,6a,7,8,9-hexahydroindolo[4,3-fg]quinoline-9-carboxamide] |  | > 10000 | 20.3 | 6.9 |  |
| CCN(CC)C(=O)[C@@H]1C=C2c3cccc4[nH]cc(c34)C[C@H]2N(Cc2ccon2)C1 [Compound 70, (6aR,9R)—N,N-diethyl-7-(isoxazol-3-ylmethyl)-4,6,6a,7,8,9-hexahydroindolo[4,3-fg]quinoline-9-carboxamide] |  | > 10000 | 23.9 | 13.6 |  |
| CCN(CC)C(=O)[C@@H]1C=C2c3cccc4[nH]cc(c34)C[C@H]2N(Cc2cocn2)C1 [Compound 73, (6aR,9R)—N,N-diethyl-7-(oxazol-4-ylmethyl)-4,6,6a,7,8,9-hexahydroindolo[4,3-fg]quinoline-9-carboxamide] |  | 1720 | 74 | 8.2 |  |
| CCN(CC)C(=O)[C@@H]1C=C2c3cccc4[nH]cc(c34)C[C@H]2N(Cc2cccc(C#N)c2)C1 [Compound 76, (6aR,9R)—N,N-diethyl-7-(3-cyanobenzyl)-4,6,6a,7,8,9-hexahydroindolo[4,3-fg]quinoline-9-carboxamide] |  | > 10000 | 0.14 | 98.5 |  |
| CCN(CC)C(=O)[C@@H]1C=C2c3cccc4[nH]cc(c34)C[C@H]2N(Cc2ccccc2)C1 [Compound 82, (6aR,9R)-7-benzyl-N,N-diethyl-4,6,6a,7,8,9-hexahydroindolo[4,3-fg]quinoline-9-carboxamide] |  | > 10000 | 15.6 | 1.94 |  |
| CCN(C)C(=O)[C@@H]1C=C2c3cccc4[nH]cc(c34)C[C@H]2N(Cc2ccccc2)C1 [Compound 85, (6aR,9R)-7-benzyl-N-ethyl-N-methyl-4,6,6a,7,8,9-hexahydroindolo[4,3-fg]quinoline-9-carboxamide] |  | > 10000 | 16.3 | 1.27 |  |
| CC[C@@H](C)NC(=O)[C@@H]1C=C2c3cccc4[nH]cc(c34)C[C@H]2N(C)C1 [Int8] |  |  |  |  | Emax [1]: 98.2%; HTR at most efficacious dose (bound) ([3]; SC, 20 min): < 15 HTR |
| CCN(CC)C(=O)[C@@H]1C=C2c3cccc4[nH]cc(c34)C[C@H]2N(C)C1 [LSD, lysergic acid diethylamide, reference compound] |  |  |  |  | Emax [2]: 94.9% |
